Each block holds one compound with its values, some of them ahead of it.
What was measured:
tmNrdD = molecular target: T1, tmNrdD (Thermotoga maritima, UniProt Q9WYL6); experiment: X-ray crystallography; assay type: binding
T1 construct: gene TM_0385; recombinant in E. coli, homodimer; residues to 651, Gly621 radical site

[1] = molecular target: anaerobic (class III) ribonucleotide reductase from Thermotoga maritima (Thermotoga maritima); experiment: crystal structure; tmNrdD dimer in the asymmetric unit, space group P2_(1); apo forms with glycerol, MES or citrate in the active site, and complexes with dATP or dATP/CTP; resolutions from 2.4 Å to 1.92 Å

T1 sequence (Q9WYL6 entry or part of it): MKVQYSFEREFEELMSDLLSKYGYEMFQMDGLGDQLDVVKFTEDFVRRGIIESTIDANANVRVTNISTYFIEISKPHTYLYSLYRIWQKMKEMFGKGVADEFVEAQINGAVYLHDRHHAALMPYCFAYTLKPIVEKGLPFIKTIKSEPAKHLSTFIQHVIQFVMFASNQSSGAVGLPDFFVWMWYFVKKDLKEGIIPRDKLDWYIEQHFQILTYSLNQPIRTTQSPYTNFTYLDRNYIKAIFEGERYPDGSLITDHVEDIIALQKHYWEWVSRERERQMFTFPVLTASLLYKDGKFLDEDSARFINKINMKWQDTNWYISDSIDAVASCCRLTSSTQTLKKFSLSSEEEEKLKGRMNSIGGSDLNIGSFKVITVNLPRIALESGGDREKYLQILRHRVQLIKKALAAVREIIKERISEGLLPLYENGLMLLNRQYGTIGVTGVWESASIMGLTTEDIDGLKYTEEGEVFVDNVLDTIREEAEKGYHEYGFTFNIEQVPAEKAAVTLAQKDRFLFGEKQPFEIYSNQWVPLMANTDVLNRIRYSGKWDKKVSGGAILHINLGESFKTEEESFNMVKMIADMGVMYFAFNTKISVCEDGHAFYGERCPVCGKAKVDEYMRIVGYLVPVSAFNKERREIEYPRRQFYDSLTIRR

Compound: Nc1ccn([C@@H]2O[C@H](COP(=O)(O)OP(=O)(O)OP(=O)(O)O)[C@@H](O)[C@H]2O)c(=O)n1 [CTP]
X-ray crystallography (tmNrdD; active site, with effector dATP, soak or co-crystal 2 mM CTP, also reduced to dCTP in assay with MBP-tmNrdG and T. maritima cell extract): represents the first structure of an anaerobic, class III RNR with a substrate

Compound: Nc1ncnc2c1ncn2[C@H]1C[C@H](O)[C@@H](COP(=O)(O)OP(=O)(O)OP(=O)(O)O)O1 [dATP]
X-ray crystallography (tmNrdD; allosteric specificity effector site at dimer interface, Mg2+ (Mn2+ substituted), dATP alone 4COL, also with CTP 4COJ, soak or co-crystal 0.5 mM dATP): The effector dATP binds at the dimer interface, along the length of helices αA and αB

stoichiometry N [1]: 2
Compound: anaerobic (class III) ribonucleotide reductase from Thermotoga maritima (enzyme)

Source: publication PMC4493059, “The Crystal Structure of Thermotoga maritima Class III Ribonucleotide Reductase Lacks a Radical Cysteine Pre-Positioned in the Active Site” (PLoS ONE, 2015)
